Reference: US10435415B2, “Substituted tetrahydrocarbazole and carbazole carboxamide compounds” (BRISTOL-MYERS SQUIBB COMPANY, priority 2013, dated 2019)
Read-outs that look alike come from different tables or passages of the source.

Key:
Jak2 tyrosine kinase = Jak2 tyrosine kinase (Homo sapiens (Human), UniProt O60674); assay: Jak2 Tyrosine Kinase Assay; format: biochemical; details: selectivity of Btk over Jak2
[1] = tested on: BCR-stimulated CD69 expression on B cells in human whole blood; assay: Whole Blood Assay of BCR-Stimulated CD69 Expression on B Cells; format: cell-based
human recombinant Btk = human recombinant Btk (Homo sapiens (Human), UniProt Q06187); assay: Human Recombinant Btk Enzyme Assay; format: biochemical
human recombinant Btk, sequence (Q06187 whole entry): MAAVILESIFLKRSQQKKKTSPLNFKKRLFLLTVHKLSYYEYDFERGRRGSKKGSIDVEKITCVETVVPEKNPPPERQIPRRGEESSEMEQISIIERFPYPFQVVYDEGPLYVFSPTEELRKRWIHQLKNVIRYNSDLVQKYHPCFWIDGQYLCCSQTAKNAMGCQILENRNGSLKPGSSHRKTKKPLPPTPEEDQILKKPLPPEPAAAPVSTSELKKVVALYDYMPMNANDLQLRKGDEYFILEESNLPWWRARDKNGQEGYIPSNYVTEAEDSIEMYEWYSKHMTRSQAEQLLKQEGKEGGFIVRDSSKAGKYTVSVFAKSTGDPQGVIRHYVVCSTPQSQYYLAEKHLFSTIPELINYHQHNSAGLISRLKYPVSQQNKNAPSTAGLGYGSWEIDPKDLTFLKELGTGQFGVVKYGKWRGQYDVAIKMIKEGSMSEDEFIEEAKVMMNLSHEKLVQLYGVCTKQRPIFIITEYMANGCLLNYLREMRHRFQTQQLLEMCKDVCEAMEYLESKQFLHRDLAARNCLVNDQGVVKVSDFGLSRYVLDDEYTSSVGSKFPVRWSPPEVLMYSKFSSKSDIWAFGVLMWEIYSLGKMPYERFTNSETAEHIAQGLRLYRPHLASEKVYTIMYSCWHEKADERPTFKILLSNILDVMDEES

Jak2 tyrosine kinase, sequence (O60674 whole entry): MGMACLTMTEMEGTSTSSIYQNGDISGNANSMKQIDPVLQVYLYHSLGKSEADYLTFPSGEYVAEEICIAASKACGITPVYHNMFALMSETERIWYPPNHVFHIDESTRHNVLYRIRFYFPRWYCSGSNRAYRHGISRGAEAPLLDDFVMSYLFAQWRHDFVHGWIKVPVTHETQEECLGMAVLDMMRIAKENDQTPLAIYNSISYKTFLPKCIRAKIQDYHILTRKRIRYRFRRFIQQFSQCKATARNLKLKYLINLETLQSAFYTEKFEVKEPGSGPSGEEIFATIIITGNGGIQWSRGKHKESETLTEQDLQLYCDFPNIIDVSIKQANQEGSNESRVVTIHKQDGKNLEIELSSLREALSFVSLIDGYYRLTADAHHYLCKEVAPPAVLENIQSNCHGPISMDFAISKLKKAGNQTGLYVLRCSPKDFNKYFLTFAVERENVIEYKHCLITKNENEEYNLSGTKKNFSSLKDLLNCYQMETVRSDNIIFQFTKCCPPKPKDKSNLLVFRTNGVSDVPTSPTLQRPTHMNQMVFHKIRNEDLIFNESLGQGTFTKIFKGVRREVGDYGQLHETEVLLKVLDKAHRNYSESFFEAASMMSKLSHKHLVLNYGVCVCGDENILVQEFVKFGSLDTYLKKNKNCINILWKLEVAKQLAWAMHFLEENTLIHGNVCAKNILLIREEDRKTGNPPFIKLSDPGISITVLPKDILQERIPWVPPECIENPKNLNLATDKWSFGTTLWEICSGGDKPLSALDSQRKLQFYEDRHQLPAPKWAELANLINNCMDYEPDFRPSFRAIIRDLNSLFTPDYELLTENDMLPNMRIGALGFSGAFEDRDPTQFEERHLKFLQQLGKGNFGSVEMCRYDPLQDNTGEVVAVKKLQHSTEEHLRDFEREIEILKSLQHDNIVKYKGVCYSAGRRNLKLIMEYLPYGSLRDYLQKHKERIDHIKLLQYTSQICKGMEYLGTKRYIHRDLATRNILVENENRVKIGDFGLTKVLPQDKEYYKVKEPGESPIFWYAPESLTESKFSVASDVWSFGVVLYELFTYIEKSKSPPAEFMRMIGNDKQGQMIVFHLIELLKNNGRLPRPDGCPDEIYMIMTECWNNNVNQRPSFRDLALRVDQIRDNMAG

Compound | Ratio of Jak2/Btk IC50 values (Jak2 tyrosine kinase) | further results
Cc1c(-c2c(F)cc(C(N)=O)c3[nH]c4cc(C(C)(C)O)ccc4c23)cccc1-n1c(=O)[nH]c2c(F)cc(F)cc2c1=O (single isomer, unassigned) [Example 73] | 2200 | –
Cc1c(-c2c(F)cc(C(N)=O)c3[nH]c4c(c23)CC[C@H](C(C)(C)O)C4)cccc1-n1c(=O)[nH]c2c(F)cccc2c1=O (single isomer, unassigned) [Example 59] | – | IC50 [1]: 260 nM
Cc1c(-c2c(F)cc(C(N)=O)c3[nH]c4cc(C(C)(C)O)ccc4c23)cccc1-n1c(=O)[nH]c2cc(F)ccc2c1=O (single isomer, unassigned) [Example 51] | >6700 | –
3-Chloro-4-(R)-(2-chloro-3-(8-fluoro-1-methyl-2,4-dioxo-1,2-dihydroquinazolin-3(4H)-yl)phenyl)-7-(2-hydroxypropan-2-yl)-9H-carbazole-1-carboxamide [Example 45] | – | IC50 [1]: 68 nM; IC50 (human recombinant Btk): 0.45 nM
Cc1c(-c2c(C#N)cc(C(N)=O)c3[nH]c4cc(C(C)(C)O)ccc4c23)cccc1-n1c(=O)cc2c(Cl)cccn2c1=O (single isomer, unassigned) [Example 72] | 1600 | –
Cc1c(-c2c(Cl)cc(C(N)=O)c3[nH]c4cc(C(C)(C)O)ccc4c23)cccc1-n1c(=O)[nH]c2c(F)cc(F)cc2c1=O (single isomer, unassigned) [Example 48] | 3300 | –

Now from value to compound, other results behind:

Ratio of Jak2/Btk IC50 values (Jak2 tyrosine kinase) | Compound | further results
3400 | Cc1c(-c2c(F)cc(C(N)=O)c3[nH]c4cc(C(C)(C)O)ccc4c23)cccc1-n1c(=O)[nH]c2c(Cl)cccc2c1=O (single isomer, unassigned) [Example 54] | IC50 ([1]; Homo sapiens, B-cell): 10 nM
>2600 | Cc1c(-c2c(F)cc(C(N)=O)c3[nH]c4cc(C(C)(C)O)ccc4c23)cccc1-n1c(=O)[nH]c2c(F)cc(F)cc2c1=O [Example 49] | –
3800 | Cc1c(-c2c(F)cc(C(N)=O)c3[nH]c4cc(C(C)(C)O)ccc4c23)cccc1-n1c(=O)[nH]c2c(F)cc(F)cc2c1=O (single isomer, unassigned) [Example 50] | –
